In PubChem BioAssay (NCI):
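48-hour exposure; five concentrations; linearly interpolated endpoints. GI50: concentration for 50% inhibition of growth. TGI denotes the concentration required for complete inhibition of growth.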

Experiments:
Test in all cases: NCI-60 cell line screen, 48 h
NCI-H460 lung = system: NCI-H460 lung
SK-MEL-5 melanoma = system: SK-MEL-5 melanoma
NCI/ADR-RES ovarian = system: NCI/ADR-RES ovarian
786-0 renal = system: 786-0 renal
HOP-62 NSCLC = system: HOP-62 NSCLC
A498 renal = system: A498 renal
M14 melanoma = system: M14 melanoma
UACC-62 melanoma = system: UACC-62 melanoma
ACHN renal = system: ACHN renal
MDA-MB-231 breast = system: MDA-MB-231 breast

`COc1ccc(-c2c(N)n(-c3cccc(C(=O)O)c3)c(=O)c3cc([N+](=O)[O-])ccc23)cc1` was tested, and the TGI (NCI-H460 lung) was over 100 µM, the TGI (SK-MEL-5 melanoma) was over 100 µM and the TGI (NCI/ADR-RES ovarian) was over 100 µM. For the same molecule, the TGI (786-0 renal) was over 100 µM, the TGI (HOP-62 NSCLC) was over 100 µM and the TGI (A498 renal) was over 100 µM. The TGI (M14 melanoma) was over 100 µM, the TGI (UACC-62 melanoma) was over 100 µM and the TGI (ACHN renal) was over 100 µM.

`O=C(N/N=C/c1cc(Cl)cc(Cl)c1[O-])c1ccccc1O.O=C(N/N=C/c1cc(Cl)cc(Cl)c1[O-])c1ccccc1O.[Ni+2]` gave a TGI (NCI-H460 lung) of 1.73 µM, a TGI (SK-MEL-5 melanoma) of 1.18 µM and a TGI (HOP-62 NSCLC) of 2.09 µM. For the same molecule, the TGI (M14 melanoma) was 1.84 µM, the TGI (UACC-62 melanoma) was 0.693 µM and the TGI (ACHN renal) was 2.21 µM.

For `Cc1cc(S(=O)(=O)O)c(NC(=O)C(=O)C2C=CCS2(=O)=O)cc1Cl` (stereo not drawn), the TGI (NCI-H460 lung) was over 100 µM, the TGI (SK-MEL-5 melanoma) was over 100 µM and the TGI (786-0 renal) was over 100 µM. It also gave a TGI (HOP-62 NSCLC) of over 100 µM, a TGI (A498 renal) of over 100 µM and a TGI (M14 melanoma) of over 100 µM. It also gave a TGI (UACC-62 melanoma) of over 100 µM and a TGI (ACHN renal) of over 100 µM.

`C=CCNC(=O)NC1=CSC2=NC(=O)C3(NN12)c1ccccc1-c1ccccc13` showed a TGI (NCI-H460 lung) of over 10 µM, a TGI (SK-MEL-5 melanoma) of over 10 µM and a TGI (NCI/ADR-RES ovarian) of over 10 µM. It also gave a TGI (MDA-MB-231 breast) of over 10 µM, a TGI (786-0 renal) of over 10 µM and a TGI (HOP-62 NSCLC) of over 10 µM. The TGI (M14 melanoma) was over 10 µM, the TGI (UACC-62 melanoma) was over 10 µM and the TGI (ACHN renal) was over 10 µM.

`O=C1C=C(Br)c2c(Br)sc(Br)c21` showed a TGI (NCI-H460 lung) of over 61.8 µM, a TGI (SK-MEL-5 melanoma) of 31.4 µM and a TGI (NCI/ADR-RES ovarian) of over 53.8 µM. For the same molecule, the TGI (MDA-MB-231 breast) was 33.9 µM, the TGI (786-0 renal) was over 19.6 µM and the TGI (HOP-62 NSCLC) was over 79.9 µM. For the same molecule, the TGI (M14 melanoma) was 15 µM, the TGI (UACC-62 melanoma) was 29.2 µM and the TGI (ACHN renal) was 15.3 µM.

`C/C(=N\NC(N)=S)C(CN(CC(C)C)CC(C)C)C(=O)Nc1ccc(C)cc1C` (stereo not drawn) was tested, and the TGI (NCI-H460 lung) was over 100 µM, the TGI (SK-MEL-5 melanoma) was over 100 µM and the TGI (786-0 renal) was over 100 µM. The TGI (HOP-62 NSCLC) was over 100 µM, the TGI (A498 renal) was over 100 µM and the TGI (M14 melanoma) was over 100 µM. For the same molecule, the TGI (UACC-62 melanoma) was over 100 µM and the TGI (ACHN renal) was over 100 µM.

`COc1cccc(/C=N/[N-]C(N)=O)c1[O-].[Ni+2].[OH3+].c1cnc2c(c1)ccc1cccnc12` was tested, and the TGI (NCI-H460 lung) was over 100 µM, the TGI (SK-MEL-5 melanoma) was over 100 µM and the TGI (786-0 renal) was over 100 µM. The TGI (HOP-62 NSCLC) was over 100 µM, the TGI (A498 renal) was over 100 µM and the TGI (M14 melanoma) was over 100 µM. The TGI (UACC-62 melanoma) was over 100 µM and the TGI (ACHN renal) was over 100 µM.

Work on `CN(C)CCSC(=Nc1ccccc1)N1CCCCC1` yielded a TGI (NCI-H460 lung) of 33.8 µM, a TGI (SK-MEL-5 melanoma) of 29.8 µM and a TGI (786-0 renal) of 30 µM. For the same molecule, the TGI (HOP-62 NSCLC) was over 100 µM, the TGI (M14 melanoma) was 29.9 µM and the TGI (UACC-62 melanoma) was 30.4 µM. For the same molecule, the TGI (ACHN renal) was 30.5 µM.

`Cc1ccc(N2CCc3c(C)c(C#N)c4nc5ccccc5n4c32)cc1` showed a TGI (NCI-H460 lung) of over 100 µM, a TGI (SK-MEL-5 melanoma) of over 100 µM and a TGI (NCI/ADR-RES ovarian) of over 100 µM. The TGI (786-0 renal) was over 100 µM, the TGI (HOP-62 NSCLC) was over 100 µM and the TGI (UACC-62 melanoma) was over 100 µM. For the same molecule, the TGI (ACHN renal) was over 100 µM.

`[N-]=[N+]=CC(=O)OCC1SCCCS1` was tested, and the TGI (NCI-H460 lung) was over 100 µM, the TGI (SK-MEL-5 melanoma) was over 100 µM and the TGI (MDA-MB-231 breast) was over 100 µM. For the same molecule, the TGI (786-0 renal) was over 100 µM, the TGI (HOP-62 NSCLC) was over 100 µM and the TGI (A498 renal) was over 100 µM. For the same molecule, the TGI (UACC-62 melanoma) was over 100 µM and the TGI (ACHN renal) was over 100 µM.

`COc1ccc2c(c1)n([O-])c(C#N)c(N1CCN(c3ccc([N+](=O)[O-])cc3)CC1)[n+]2=O` was tested, and the TGI (NCI-H460 lung) was over 100 µM, the TGI (SK-MEL-5 melanoma) was 19.7 µM and the TGI (NCI/ADR-RES ovarian) was 11.8 µM. The TGI (MDA-MB-231 breast) was over 100 µM, the TGI (786-0 renal) was over 100 µM and the TGI (HOP-62 NSCLC) was over 71.4 µM. For the same molecule, the TGI (M14 melanoma) was over 100 µM, the TGI (UACC-62 melanoma) was over 100 µM and the TGI (ACHN renal) was over 100 µM.

In the case of `N#Cc1c(N2CCCC2)ncn(Cc2ccccc2)c1=O`, the TGI (NCI-H460 lung) is reported as over 100 µM, the TGI (SK-MEL-5 melanoma) is reported as over 100 µM and the TGI (NCI/ADR-RES ovarian) is reported as over 100 µM. The TGI (786-0 renal) was over 100 µM, the TGI (HOP-62 NSCLC) was over 100 µM and the TGI (A498 renal) was over 100 µM. For the same molecule, the TGI (M14 melanoma) was over 100 µM, the TGI (UACC-62 melanoma) was over 100 µM and the TGI (ACHN renal) was over 100 µM.

`C=C1C(=O)OCC2C(C(=O)O)=CC3C(C)C(C)=CC123` (stereo not drawn) gave a TGI (NCI-H460 lung) of 29.2 µM, a TGI (SK-MEL-5 melanoma) of 27.3 µM and a TGI (NCI/ADR-RES ovarian) of 27.3 µM. The TGI (HOP-62 NSCLC) was 31.4 µM, the TGI (A498 renal) was 18.2 µM and the TGI (UACC-62 melanoma) was 11.8 µM.

`CCOC(=O)/C=C(\C(=O)OCC)n1ccc(N)nc1=O` was tested, and the TGI (NCI-H460 lung) was over 100 µM, the TGI (SK-MEL-5 melanoma) was over 100 µM and the TGI (NCI/ADR-RES ovarian) was over 100 µM. The TGI (MDA-MB-231 breast) was over 100 µM, the TGI (786-0 renal) was over 100 µM and the TGI (HOP-62 NSCLC) was over 100 µM. The TGI (M14 melanoma) was over 100 µM, the TGI (UACC-62 melanoma) was over 100 µM and the TGI (ACHN renal) was over 100 µM.

`CC(C)c1ccc(/C=C2\CSCC3=C2NC(=S)NC3c2ccc(C(C)C)cc2)cc1` (stereo not drawn) gave a TGI (NCI-H460 lung) of over 100 µM, a TGI (SK-MEL-5 melanoma) of 99.5 µM and a TGI (NCI/ADR-RES ovarian) of over 100 µM. The TGI (MDA-MB-231 breast) was over 100 µM, the TGI (786-0 renal) was over 100 µM and the TGI (HOP-62 NSCLC) was over 100 µM. It also gave a TGI (M14 melanoma) of over 100 µM, a TGI (UACC-62 melanoma) of over 100 µM and a TGI (ACHN renal) of over 100 µM.

For `COc1cccc(Cc2c3cc(OC)ccc3cc[n+]2C)c1`, the TGI (NCI-H460 lung) was over 100 µM, the TGI (SK-MEL-5 melanoma) was 65.4 µM and the TGI (786-0 renal) was over 100 µM. It also gave a TGI (HOP-62 NSCLC) of over 100 µM, a TGI (A498 renal) of over 100 µM and a TGI (M14 melanoma) of over 100 µM. For the same molecule, the TGI (ACHN renal) was over 100 µM.

In the case of `O=C(NC1CCN(Cc2ccccc2)CC1)c1cc2nc(-c3ccc(Cl)s3)cc(C(F)(F)F)n2n1`, the GI50 (SK-MEL-5 melanoma) is reported as 6.34 µM, the TGI (SK-MEL-5 melanoma) is reported as over 100 µM and the GI50 (NCI/ADR-RES ovarian) is reported as over 100 µM. The TGI (NCI/ADR-RES ovarian) was over 100 µM, the GI50 (HOP-62 NSCLC) was 27 µM and the TGI (HOP-62 NSCLC) was over 100 µM.

`O=c1[nH]c(=O)n(Cc2ccccc2CO)cc1Sc1ccccc1` gave a TGI (NCI-H460 lung) of over 100 µM, a TGI (SK-MEL-5 melanoma) of 26.7 µM and a TGI (NCI/ADR-RES ovarian) of 81 µM. For the same molecule, the TGI (MDA-MB-231 breast) was 33.8 µM, the TGI (786-0 renal) was over 100 µM and the TGI (HOP-62 NSCLC) was over 100 µM. The TGI (M14 melanoma) was 41.2 µM, the TGI (UACC-62 melanoma) was over 100 µM and the TGI (ACHN renal) was 96.4 µM.
